Results taken from DBAASP.
≈ marks a conversion by molar mass, not a printed value. Blank lines part the entries; values can stand above or below the molecule they belong to.

Experiments:
Experiment in all cases: ≥ marks a high value that may be exact or a test limit, other limits are often not marked, values filed in µg/mL are converted to µM
[1] = test system: Candida glabrata ATCC 90030
[2] = test system: Staphylococcus aureus ATCC 29213
[3] = test system: Staphylococcus epidermidis ATCC 12228
[4] = test system: Candida albicans ATCC 90028
[5] = test system: Escherichia coli ATCC 25922
[6] = test system: Pseudomonas aeruginosa ATCC 27853
Candida krusei ATCC 6258 = test system: Candida krusei ATCC 6258
[7] = test system: Enterococcus faecalis ATCC 4028
[8] = test system: Enterobacter cloacae ATCC 13047
[9] = test system: Agrobacterium tumefaciens GV3101
Methylobacterium sp. = test system: Methylobacterium sp.
Xanthomonas citri = test system: Xanthomonas citri
[10] = test system: Sinorhizobium meliloti USDA 1002
[11] = test system: Salmonella enterica subsp. enterica serovar Typhi CMCC 50071
Escherichia coli UB1005 = test system: Escherichia coli UB1005
[12] = test system: Listeria monocytogenes CMCC 54004
[13] = test system: Salmonella enterica subsp. enterica serovar Pullorum C79-13
[14] = test system: Candida albicans ATCC 14053
[15] = test system: Staphylococcus aureus ATCC 12600
[16] = test system: Escherichia coli ATCC 11775
[17] = test system: Micrococcus luteus ATCC 49732
Escherichia coli ML-35 = test system: Escherichia coli ML-35
[18] = test system: Salmonella enterica subsp. enterica serovar Typhimurium ATCC 14028
Bacillus megaterium Bm11 = test system: Bacillus megaterium Bm11
[19] = test system: Serratia marcescens ATCC 8100
Escherichia coli D21 = test system: Escherichia coli D21
[20] = test system: Staphylococcus epidermidis KCTC 1917
[21] = test system: Salmonella enterica subsp. enterica serovar Enteritidis ATCC 13076
[22] = test system: Streptococcus mutans KCTC 3065
[23] = test system: Aspergillus fumigatus KCTC 6145
[24] = test system: Trichosporon beigelii KCTC 7707
[25] = test system: Enterococcus faecalis ATCC 29212
[26] = test system: Enterococcus faecium ATCC 19434
[27] = test system: Malassezia furfur KCTC 7744
[28] = test system: Candida parapsilosis ATCC 22019
[29] = test system: Salmonella typhimurium KCTC 1926
[30] = test system: Aspergillus flavus KCTC 6905
Escherichia coli BW25113 = test system: Escherichia coli BW25113
[31] = test system: Klebsiella pneumoniae ATCC 13883
Bacillus subtilis = test system: Bacillus subtilis
Escherichia coli = test system: Escherichia coli
[32] = test system: Streptococcus pyogenes ATCC 19615
[33] = test system: Staphylococcus epidermidis ATCC 51625
[34] = test system: Staphylococcus aureus ATCC BAA-44
[35] = test system: Staphylococcus aureus ATCC 25923

MIC (Escherichia coli ML-35): ≥ 32 µM
MIC [18]: 8 µM (≈ 15.3 µg/mL)
MIC (Bacillus megaterium Bm11): ≥ 32 µM
MIC [3]: > 64 µM
MIC [19]: ≥ 32 µM
MIC (Escherichia coli D21): 16 µM (≈ 30.6 µg/mL)
SMILES: CC(C)C[C@H](NC(=O)[C@H](Cc1ccc(O)cc1)NC(=O)[C@@H]1CCCN1C(=O)[C@@H]1CCCN1C(=O)[C@H](CCCN=C(N)N)NC(=O)[C@@H]1CCCN1C(=O)[C@H](CCCN=C(N)N)NC(=O)[C@H](CCCN=C(N)N)NC(=O)[C@@H](N)CCCN=C(N)N)C(=O)N1CCC[C@H]1C(=O)N1CCC[C@H]1C(=O)N[C@@H](CCCN=C(N)N)C(=O)N[C@@H](CCCN=C(N)N)C(=O)N1CCC[C@H]1C(=O)N1CCC[C@H]1C(=O)O [RRRPRPPYLPPRRPP]

MIC [20]: 5 µM (≈ 8.78 µg/mL)
MIC [21]: 5 µM (≈ 8.78 µg/mL)
MIC [22]: 5 µM (≈ 8.78 µg/mL)
MIC [4]: 10 µM (≈ 17.6 µg/mL)
MIC [23]: 10 µM (≈ 17.6 µg/mL)
MIC [24]: 5 µM (≈ 8.78 µg/mL)
MIC [25]: 2.5 µM (≈ 4.39 µg/mL)
MIC [26]: 2.5 µM (≈ 4.39 µg/mL)
MIC [6]: 10 µM (≈ 17.6 µg/mL)
MIC [27]: 5 µM (≈ 8.78 µg/mL)
MIC [28]: 5 µM (≈ 8.78 µg/mL)
MIC [29]: 5 µM (≈ 8.78 µg/mL)
MIC [30]: 10 µM (≈ 17.6 µg/mL)
MIC (Escherichia coli BW25113): 5 µM (≈ 8.78 µg/mL)
SMILES: CC(C)C[C@H](NC(=O)[C@H](CCCCN)NC(=O)[C@H](CC(C)C)NC(=O)[C@H](CC(N)=O)NC(=O)[C@H](CC(C)C)NC(=O)[C@H](CCCCN)NC(=O)[C@H](CS)NC(=O)[C@@H]1CCCN1C(=O)[C@@H](N)Cc1ccc(O)cc1)C(=O)NCC(=O)N[C@@H](CCCCN)C(=O)N[C@H](C(=O)N1CCC[C@H]1C(=O)N[C@@H](Cc1ccccc1)C(=O)N[C@@H](Cc1cnc[nH]1)C(N)=O)C(C)C [YPCKLNLKLGKVPFH]

MIC [18]: 8 µM (≈ 20.6 µg/mL)
MIC [31]: 6 µM (≈ 15.5 µg/mL)
MIC (Bacillus subtilis): 6 µM (≈ 15.5 µg/mL)
MIC (Escherichia coli): 6 µM (≈ 15.5 µg/mL)
MIC [25]: 6 µM (≈ 15.5 µg/mL)
MIC [6]: 8 µM (≈ 20.6 µg/mL)
MIC [32]: 15 µM (≈ 38.7 µg/mL)
MIC [33]: 30 µM (≈ 77.4 µg/mL)
MIC [34]: 30 µM (≈ 77.4 µg/mL)
MIC [35]: 6 µM (≈ 15.5 µg/mL)
SMILES: CC(C)C[C@H](NC(=O)[C@H](CO)NC(=O)[C@H](CCCN=C(N)N)NC(=O)[C@H](CCCCN)NC(=O)[C@@H](NC(=O)[C@@H](NC(=O)CNC(=O)[C@H](CCCN=C(N)N)NC(=O)[C@H](Cc1cnc[nH]1)NC(=O)[C@H](Cc1c[nH]c2ccccc12)NC(=O)[C@H](Cc1ccccc1)NC(=O)[C@H](Cc1cnc[nH]1)NC(=O)[C@H](Cc1ccc(O)cc1)NC(=O)[C@@H](N)Cc1ccc(O)cc1)C(C)C)[C@@H](C)O)C(=O)N[C@@H](CO)C(=O)N1CCC[C@H]1C(=O)N[C@@H](Cc1cnc[nH]1)C(=O)N[C@@H](CCCN=C(N)N)C(=O)N1CCC[C@H]1C(=O)N[C@@H](CCCN=C(N)N)C(=O)O [YYHFWHRGVTKRSLSPHRPR]

The next lines start with the molecule.

SMILES: CC[C@H](C)[C@H](NC(=O)[C@H](CC(C)C)NC(=O)[C@H](CCCCN)NC(=O)[C@H](CCCCN)NC(=O)[C@@H](NC(=O)[C@H](CC(C)C)NC(=O)[C@H](CCCCN)NC(=O)[C@@H]1CCCN1C(=O)[C@@H](NC(=O)[C@H](CC(C)C)NC(=O)[C@H](CCCCN)NC(=O)[C@H](Cc1ccccc1)NC(=O)[C@@H](N)Cc1ccccc1)[C@@H](C)CC)C(C)C)C(=O)N[C@@H](CCCCN)C(=O)N[C@@H](C)C(=O)N[C@@H](Cc1ccccc1)C(=O)N[C@@H](CCCCN)C(N)=O [FFKLIPKLVKKLIKAFK]
MIC [1]: 4.7 µM (≈ 9.69 µg/mL)
MIC [2]: 2.3 µM (≈ 4.74 µg/mL)
MIC [3]: 2.3 µM (≈ 4.74 µg/mL)
MIC [4]: 4.7 µM (≈ 9.69 µg/mL)
MIC [5]: 1.2 µM (≈ 2.47 µg/mL)
MIC [6]: 2.3 µM (≈ 4.74 µg/mL)
MIC (Candida krusei ATCC 6258): 4.7 µM (≈ 9.69 µg/mL)
MIC [7]: 1.2 µM (≈ 2.47 µg/mL)
MIC [8]: 4.7 µM (≈ 9.69 µg/mL)

SMILES: CC[C@H](C)[C@H](NC(=O)[C@H](C)NC(=O)[C@H](CCCCN)NC(=O)[C@@H](NC(=O)[C@H](CC(C)C)NC(=O)[C@H](C)NC(=O)[C@H](CCCCN)NC(=O)[C@H](Cc1ccccc1)NC(=O)[C@@H](NC(=O)[C@H](C)NC(=O)[C@H](CCCCN)NC(=O)CNC(=O)[C@@H](NC(=O)[C@H](CCCCN)NC(=O)[C@@H](NC(=O)[C@@H](NC(=O)[C@H](Cc1ccccc1)NC(=O)[C@H](CCCCN)NC(=O)[C@H](CC(C)C)NC(=O)[C@H](CC(C)C)NC(=O)[C@@H](N)CCCCN)C(C)C)[C@@H](C)O)C(C)C)[C@@H](C)CC)[C@@H](C)CC)C(=O)O [KLLKFVTKVGKAIFKALIKAI]
MIC [9]: 3 µM (≈ 6.99 µg/mL)
MIC (Methylobacterium sp.): 3 µM (≈ 6.99 µg/mL)
MIC (Xanthomonas citri): 3 µM (≈ 6.99 µg/mL)
MIC [10]: 3 µM (≈ 6.99 µg/mL)

SMILES: CC(C)C[C@H](NC(=O)[C@H](CCC(N)=O)NC(=O)[C@@H]1CCCN1C(=O)[C@@H](NC(=O)[C@H](CCCCN)NC(=O)[C@H](Cc1ccc(O)cc1)NC(=O)[C@H](CCCCN)NC(=O)[C@H](CCCCN)NC(=O)[C@H](CC(C)C)NC(=O)[C@H](CCCN=C(N)N)NC(=O)[C@@H](N)CC(C)C)C(C)C)C(=O)O [LRLKKYKVPQL]
MIC [2]: 640 µM (≈ 887 µg/mL)
MIC [5]: 64 µM (≈ 88.7 µg/mL)
MIC [11]: ≥ 256 µM
MIC (Escherichia coli UB1005): ≥ 128 µM
MIC [12]: ≥ 64 µM
MIC [13]: ≥ 256 µM

SMILES: CC(C)[C@H](NC(=O)[C@H](C)NC(=O)[C@H](C)NC(=O)CNC(=O)[C@@H]1CCCN1)C(=O)N[C@@H](Cc1ccccc1)C(=O)N[C@@H](CCCCN)C(=O)O [PGAAVFK]
MIC [14]: ≥ 36 µM
MIC [15]: 12 µM (≈ 8.27 µg/mL)
MIC [16]: 12 µM (≈ 8.27 µg/mL)
MIC [17]: ≥ 36 µM
